Laboratory results reported in PMC10895697 (JAC-Antimicrobial Resistance, 2024).
Values after ≈ are worked out from the molar mass of the structure shown. Read-outs that look alike come from different tables or passages of the source.

Key:
S. aureus 1333 (MSSA) = assay: MIC/MBC by broth microdilution reference method; assay type: cell-based, Staphylococcus aureus; settings: Staphylococcus aureus
S. aureus 1334 (MSSA) = assay: MIC/MBC by broth microdilution reference method; assay type: cell-based, Staphylococcus aureus; settings: Staphylococcus aureus
S. aureus 1814 (MRSA) = assay: MIC/MBC by broth microdilution reference method; assay type: cell-based, Staphylococcus aureus; settings: Staphylococcus aureus
S. aureus 1815 (MRSA) = assay: MIC/MBC by broth microdilution reference method; assay type: cell-based, Staphylococcus aureus; settings: Staphylococcus aureus
S. aureus 1816 (MSSA) = assay: MIC/MBC by broth microdilution reference method; assay type: cell-based, Staphylococcus aureus; settings: Staphylococcus aureus
S. aureus 1817 (MSSA) = assay: MIC/MBC by broth microdilution reference method; assay type: cell-based, Staphylococcus aureus; settings: Staphylococcus aureus
S. aureus 1818 (MSSA) = assay: MIC/MBC by broth microdilution reference method; assay type: cell-based, Staphylococcus aureus; settings: Staphylococcus aureus
[1] = tested on: S. aureus ATCC 29213 (MSSA reference strain); assay: MIC/MBC by broth microdilution reference method; assay type: cell-based, Staphylococcus aureus; settings: Staphylococcus aureus
all S. aureus isolates = assay: MIC/MBC by broth microdilution, summary over all isolates; assay type: cell-based, Staphylococcus aureus; settings: Staphylococcus aureus, read-out: MICs for all S. aureus isolates
[2] = tested on: intra-osteoblastic S. aureus; assay: Osteoblast infection model (MG-63), intracellular activity; assay type: cell-based, Staphylococcus aureus; settings: MG-63, all four isolates (2 MSSA and 2 MRSA), 2 x MIC, 3 h after treatment, vs untreated cells
Description: The osteoblast infection model was conducted using MG-63 (CRL-1427) osteoblastic cells, following previously published procedures.[19] Briefly, MG-63 cells were cultured at 37°C in a 5% CO2 environment and passaged weekly for up to 20 weeks. The culture medium used was DMEM supplemented with 10% FBS, 25 mM HEPES, 2 mM L-glutamine, with or without antibiotics (100 U/mL penicillin plus 100 mg/L streptomycin). For the assays, MG-63 cells were seeded in 24-well plates until reaching 70%–80% confluence. Bacterial cell suspensions grown overnight in BHI broth were prepared and adjusted to an moi of 50, and then introduced to the osteoblasts. After a 2 h coincubation to facilitate bacterial adhesion, MG-63 cells were rinsed and treated with 100 mg/L gentamicin for 1 h to eliminate extracellular bacterial cells. […] Finally, intracellular bacterial cells were quantified in cellular lysates (following osmotic shock) by plating them onto BHI agar.
(§1) Figure 1. […] Data represent the mean ± SD from three independent experiments. Intracellular cfu counts were normalized relative to untreated cells (depicted by black histograms), and differences between treated and untreated cells, as well as between the two compounds, were assessed using the Mann–Whitney U-test. *P < 0.05; **P < 0.01; ***P < 0.001; ****P < 0.0001.

[3] = tested on: intra-macrophagic S. aureus; assay: Macrophage infection model (THP-1), intracellular activity; assay type: cell-based, Staphylococcus aureus; settings: THP-1, MRSA 1814, MRSA 1815, MSSA 1333 and MSSA 1334, 2 x MIC, 24 h after treatment, vs untreated cells
Description: The macrophage infection model was performed using the THP-1 human monocytic cell line (ATCC, Rockville, USA). In brief, cells were cultured in the Roswell Park Memorial Institute (RPMI) medium supplemented with 10% FBS in T75 flasks at 37°C and 5% CO2, and were maintained through weekly transfers within passages 2 to 20. For the assays, THP-1 cells were seeded in 12-well plates and differentiated into macrophages with phorbol myristate acetate (PMA) for 72 h until they reached approximately 80% confluence. Bacterial suspensions, grown overnight in BHI, were prepared and adjusted to an moi of 10, and then introduced to the macrophages. After a 2 h coincubation to facilitate bacterial adherence, the cells were washed and treated with 100 mg/L gentamicin for 1 h. […] Finally, intracellular bacterial cells were enumerated from cellular lysates (following osmotic shock) by plating them onto BHI agar. Infected but untreated cells were used as a control in all experiments. The number of cfu in treated cells was standardized as a percentage of the controls.
as §1, with “Figure 2.” for “Figure 1.”, “SD of” for “SD from”, “U-test.” for “U-test. *P < 0.05; **P < 0.01;”

macrophages (THP-1) = tested on: macrophages (THP-1)
Description: (§2) In both models, the viability was assessed using the MTT assay to determine the potential cytotoxicity of antimicrobials on untreated and infected/treated cells. Briefly, an MTT solution (0.5 mg/mL) was added to the cell medium without FBS. After washing with PBS and a 30 min incubation at 37°C, the formazan crystals formed were dissolved in DMSO. Absorbance values at 540 nm were measured using a BioTek Synergy 2 microplate reader.

osteoblasts (MG-63) = tested on: osteoblasts (MG-63)
Description: as §2

MSSA 1334 = assay: Mouse model of septic arthritis; assay type: in vivo; settings: MSSA 1334-infected mice, Pep16 10 mg/kg or vancomycin 100 mg/kg subcutaneous daily
Description: Female Swiss mice, obtained from Janvier Labs and aged between 11 and 13 weeks with an approximate weight of 34 g, were used. The experiments were conducted in the ARCHE animal facility (Biosit) in Rennes. Mice were inoculated IV with 200 μL of a 0.9% NaCl solution containing approximately 10^8 cfu of the 1334 strain (MSSA). […] These treatments were administered daily for a duration of 7 days. […] The mice were monitored on a daily basis, and on the seventh day, they were humanely euthanized using CO2. Subsequently, knee joints, spleen and kidneys were excised, weighed and homogenized in 0.9% NaCl using a Polytron PT 3100D homogenizer (Kinematica, Switzerland). Bacterial loads were determined by plating serial dilutions onto BHI agar and expressed as log10 cfu/g.
Figure 3. Bacterial loads (in log cfu/g) at Day 7 in knee joints, kidneys and spleen from mice infected by MSSA 1334. Mice were initially inoculated with approximately 1 × 10^8 cfu of MSSA 1334. […] Treatments were administered via subcutaneous injection and continued daily until the conclusion of the experiment. Individual dots on the graph represent cfu counts for single animals (enumerated at Day 7), with black horizontal lines indicating median values. The experiments were performed with five mice per condition, in triplicate for Pep16 and saline solution, and in duplicate for vancomycin. […]

`CCCCCCCCCC(=O)N[C@@H](Cc1c[nH]c2ccccc12)C(=O)N[C@H](CC(N)=O)C(=O)N[C@@H](CC(=O)O)C(=O)N[C@@H]1C(=O)NCC(=O)N[C@@H](CCCN)C(=O)N[C@@H](CC(=O)O)C(=O)N[C@H](C)C(=O)N[C@@H](CC(=O)O)C(=O)NCC(=O)N[C@H](CO)C(=O)N[C@@H]([C@H](C)CC(=O)O)C(=O)N[C@@H](CC(=O)c2ccccc2N)C(=O)O[C@@H]1C` [DAP, daptomycin] gave an MBC (S. aureus 1333 (MSSA); MSSA) of 0.5 µg/mL (≈ 0.309 µM), an MIC (S. aureus 1333 (MSSA); MSSA) of 0.25 µg/mL (≈ 0.154 µM) and an MBC (S. aureus 1334 (MSSA); MSSA) of 0.5 µg/mL (≈ 0.309 µM). For the same compound, the MIC (S. aureus 1334 (MSSA); MSSA) was 0.25 µg/mL (≈ 0.154 µM), the MBC (S. aureus 1814 (MRSA); MRSA) was 0.5 µg/mL (≈ 0.309 µM) and the MIC (S. aureus 1814 (MRSA); MRSA) was 0.25 µg/mL (≈ 0.154 µM). For the same compound, the MBC (S. aureus 1815 (MRSA); MRSA) was 0.5 µg/mL (≈ 0.309 µM), the MIC (S. aureus 1815 (MRSA); MRSA) was 0.25 µg/mL (≈ 0.154 µM) and the MBC (S. aureus 1816 (MSSA); MSSA) was 0.5 µg/mL (≈ 0.309 µM). For the same compound, the MIC (S. aureus 1816 (MSSA); MSSA) was 0.25 µg/mL (≈ 0.154 µM), the MBC (S. aureus 1817 (MSSA); MSSA) was 0.5 µg/mL (≈ 0.309 µM) and the MIC (S. aureus 1817 (MSSA); MSSA) was 0.25 µg/mL (≈ 0.154 µM). The MBC (S. aureus 1818 (MSSA); MSSA) was 0.5 µg/mL (≈ 0.309 µM), the MIC (S. aureus 1818 (MSSA); MSSA) was 0.25 µg/mL (≈ 0.154 µM) and the MBC [1] was 0.5 µg/mL (≈ 0.309 µM). The MIC [1] was 0.25 µg/mL (≈ 0.154 µM) and the MIC (all S. aureus isolates) was 0.25 µg/mL (≈ 0.154 µM).
Work on `C[C@H]1COc2c(N3CCN(C)CC3)c(F)cc3c(=O)c(C(=O)O)cn1c23` [LVX, levofloxacin] yielded an MBC (S. aureus 1333 (MSSA); strain 1333, MSSA multi-susceptible, broth microdilution, read-out: MBC) of 0.5 µg/mL (≈ 1.38 µM), an MIC (S. aureus 1333 (MSSA); strain 1333, MSSA multi-susceptible, broth microdilution, read-out: MIC) of 0.5 µg/mL (≈ 1.38 µM) and an MBC (S. aureus 1334 (MSSA); strain 1334, MSSA multi-susceptible, broth microdilution, read-out: MBC) of 0.5 µg/mL (≈ 1.38 µM). It also gave an MIC (S. aureus 1334 (MSSA); strain 1334, MSSA multi-susceptible, broth microdilution, read-out: MIC) of 0.5 µg/mL (≈ 1.38 µM), an MBC (S. aureus 1814 (MRSA); strain 1814, MRSA ciprofloxacin resistant, broth microdilution, read-out: MBC) of 4 µg/mL (≈ 11.1 µM) and an MIC (S. aureus 1814 (MRSA); strain 1814, MRSA ciprofloxacin resistant, broth microdilution, read-out: MIC) of 4 µg/mL (≈ 11.1 µM). For the same compound, the MBC (S. aureus 1815 (MRSA); strain 1815, MRSA gentamicin and erythromycin resistant, broth microdilution, read-out: MBC) was 0.5 µg/mL (≈ 1.38 µM), the MIC (S. aureus 1815 (MRSA); strain 1815, MRSA gentamicin and erythromycin resistant, broth microdilution, read-out: MIC) was 0.5 µg/mL (≈ 1.38 µM) and the MBC (S. aureus 1816 (MSSA); strain 1816, MSSA multi-susceptible, broth microdilution, read-out: MBC) was 0.25 µg/mL (≈ 0.692 µM). The MIC (S. aureus 1816 (MSSA); strain 1816, MSSA multi-susceptible, broth microdilution, read-out: MIC) was 0.25 µg/mL (≈ 0.692 µM), the MBC (S. aureus 1817 (MSSA); strain 1817, MSSA erythromycin resistant, broth microdilution, read-out: MBC) was 0.25 µg/mL (≈ 0.692 µM) and the MIC (S. aureus 1817 (MSSA); strain 1817, MSSA erythromycin resistant, broth microdilution, read-out: MIC) was 0.25 µg/mL (≈ 0.692 µM). The MBC (S. aureus 1818 (MSSA); strain 1818, MSSA multi-susceptible, broth microdilution, read-out: MBC) was 0.25 µg/mL (≈ 0.692 µM), the MIC (S. aureus 1818 (MSSA); strain 1818, MSSA multi-susceptible, broth microdilution, read-out: MIC) was 0.25 µg/mL (≈ 0.692 µM) and the MBC ([1]; reference strain ATCC 29213, MSSA, broth microdilution, read-out: MBC) was 0.5 µg/mL (≈ 1.38 µM). For the same compound, the MIC ([1]; reference strain ATCC 29213, MSSA, broth microdilution, read-out: MIC) was 0.5 µg/mL (≈ 1.38 µM), the MIC (all S. aureus isolates; summary over all S. aureus isolates of Table 1, broth microdilution) was 0.25 to 4 µg/mL (≈ 0.692 to 11.1 µM) and the “effect on intracellular bacterial load in osteoblasts” value [2] was “significantly reduced the bacterial load”. The “effect on intracellular inoculum in macrophages” value [3] was “significantly reducing the intracellular inoculum”, the “direct cytotoxicity on uninfected macrophages (MTT)” value (macrophages (THP-1)) was “no significant direct cytotoxicity” and the “direct cytotoxicity on uninfected osteoblasts (MTT)” value (osteoblasts (MG-63)) was “did not observe any significant direct cytotoxicity”.
For `CN[C@H](CC(C)C)C(=O)N[C@H]1C(=O)N[C@@H](CC(N)=O)C(=O)N[C@H]2C(=O)N[C@H]3C(=O)N[C@H](C(=O)N[C@H](C(=O)O)c4cc(O)cc(O)c4-c4cc3ccc4O)[C@H](O)c3ccc(c(Cl)c3)Oc3cc2cc(c3O[C@@H]2O[C@H](CO)[C@@H](O)[C@H](O)[C@H]2O[C@H]2C[C@](C)(N)[C@H](O)[C@H](C)O2)Oc2ccc(cc2Cl)[C@H]1O` [VAN, vancomycin], the MBC (S. aureus 1333 (MSSA); MSSA) was 0.5 µg/mL (≈ 0.345 µM), the MIC (S. aureus 1333 (MSSA); MSSA) was 0.5 µg/mL (≈ 0.345 µM) and the MBC (S. aureus 1334 (MSSA); MSSA) was 0.5 µg/mL (≈ 0.345 µM). For the same compound, the MIC (S. aureus 1334 (MSSA); MSSA) was 0.5 µg/mL (≈ 0.345 µM), the MBC (S. aureus 1814 (MRSA); MRSA) was 0.5 µg/mL (≈ 0.345 µM) and the MIC (S. aureus 1814 (MRSA); MRSA) was 0.5 µg/mL (≈ 0.345 µM). The MBC (S. aureus 1815 (MRSA); MRSA) was 0.5 µg/mL (≈ 0.345 µM), the MIC (S. aureus 1815 (MRSA); MRSA) was 0.5 µg/mL (≈ 0.345 µM) and the MBC (S. aureus 1816 (MSSA); MSSA) was 0.5 µg/mL (≈ 0.345 µM). It also gave an MIC (S. aureus 1816 (MSSA); MSSA) of 0.5 µg/mL (≈ 0.345 µM), an MBC (S. aureus 1817 (MSSA); MSSA) of 0.5 µg/mL (≈ 0.345 µM) and an MIC (S. aureus 1817 (MSSA); MSSA) of 0.5 µg/mL (≈ 0.345 µM). It also gave an MBC (S. aureus 1818 (MSSA); MSSA) of 0.5 µg/mL (≈ 0.345 µM), an MIC (S. aureus 1818 (MSSA); MSSA) of 0.5 µg/mL (≈ 0.345 µM) and an MBC [1] of 0.5 µg/mL (≈ 0.345 µM). The MIC [1] was 0.5 µg/mL (≈ 0.345 µM), the MIC (all S. aureus isolates) was 0.5 µg/mL (≈ 0.345 µM) and the “survival of infected mice at Day 7” value (MSSA 1334) was “had survived at Day 7”.
